Measurements taken from patent publication US20230075138A1 (priority 2021, published 2023).

Experiments:
[1] = tested on: COVID-19; experiment: IL-6 level / ICU duration quadrants of COVID-19 ICU patients after therapeutic administration; type: in vivo, human; details: for patient count in quadrant Q2 / proportion of patients in quadrant Q2: Q2: ICU ≥15 days or deceased and IL-6 <10 pg/mL; for patients in Q3: Q3: ICU <15 d and IL-6 ≥10 pg/mL; for Proportion of Group − Proportion of Other: cohort vs patients not taking the drug class
Method: Four categories of patient IL-6 level/ICU stay length were defined (i.e. the 4 quadrants described in Table 2). For each drug class with at least 10 patients, and for each quadrant with nonzero number of patients, the proportion of patients in the quadrant out of those taking a drug from the class were compared to the proportion of patients in the quadrant out of those not taking a drug from the class. Fisher exact test was performed to compute p-values on these proportion comparisons. A Benjamini-Hochberg adjustment was also applied to these p-values for multiple hypotheses.
Because only 10 patients met the aforementioned criteria, 10 additional COVID positive, ICU patients who only had IL-6 measured post-corticosteroid administration were also examined. Their IL-6 levels were plotted against the duration of ICU stay (see FIG. 3). Similarly, patients who received tocilizumab (n=5), azithromycin (n=49), hydroxychloroquine (n=10), and antivirals (lopinavir-ritonavir and ribavirin, n=4) were also examined. Patients were grouped into the following four categories based on IL-6 level, ICU status, and mortality: • (Q1) ICU<15 d and IL-6<10 pg/mL, • (Q2) ICU≥15 d or deceased and IL-6<10 pg/mL, • (Q3) ICU<15 d and IL-6≥10 pg/mL, and • (Q4) ICU≥15 d or deceased and IL-6≥10 pg/mL. […] As a corollary, corticosteroids have fewer patients (30%, n=20) in Q3 compared to tocilizumab (80%, n=5), azithromycin (61%, n=49), and hydroxychloroquine (60%, n=10). (See Table 2)

[2] = tested on: COVID-19; experiment: Kaplan-Meier survival of COVID-19 positive patients hospitalized at the Mayo Clinic, by drug cohort; type: in vivo, human
[3] = Q1: ICU <15 days and IL-6 <10 pg/mL
[4] = Q3: ICU <15 days and IL-6 ≥10 pg/mL
[5] = Q4: ICU ≥15 days or deceased and IL-6 ≥10 pg/mL
[6] = COVID-19 patients requiring ICU admission
[7] = all hospitalized COVID-19 patients

Row | Molecule | patient count in quadrant Q1 [1, 3] | patient count in quadrant Q2 [1] | proportion of patients in quadrant Q2 [1] | patients in Q3 [1] | patient count in quadrant Q3 [1, 4] | patient count in quadrant Q4 [1, 5] | survival rate at 60 days post-diagnosis [2, 6] | survival rate at 60 days post-diagnosis [2, 7] | also measured
1 | CC[C@H]1OC(=O)[C@H](C)[C@@H](O[C@H]2C[C@@](C)(OC)[C@@H](O)[C@H](C)O2)[C@H](C)[C@@H](O[C@@H]2O[C@H](C)C[C@H](N(C)C)[C@H]2O)[C@](C)(O)C[C@@H](C)CN(C)[C@H](C)[C@@H](O)[C@]1(C)O [azithromycin] | 4 | 0 | (0) | 61% | 30 | 15 | 92% | 93% | Proportion of Group − Proportion of Other ([1]; quadrant Q1): −0.10; Proportion of Group − Proportion of Other ([1]; quadrant Q3): 0.17; Proportion of Group − Proportion of Other ([1]; quadrant Q4): −0.07
2 | C[C@@H]1C[C@H]2[C@@H]3CCC4=CC(=O)C=C[C@]4(C)[C@@]3(F)[C@@H](O)C[C@]2(C)[C@@]1(O)C(=O)CO [dexamethasone] | – | – | – | – | – | – | 72% | 90% | –
3 | C[C@]12CCC(=O)C=C1CC[C@@H]1[C@@H]2[C@@H](O)C[C@@]2(C)[C@H]1CC[C@]2(O)C(=O)CO [hydrocortisone] | – | – | – | – | – | – | – | 79% | –
4 | CCN(CCO)CCCC(C)Nc1ccnc2cc(Cl)ccc12 (stereo not drawn) [hydroxychloroquine] | 2 | 0 | (0) | 60% | 6 | 2 | 100% | – | Proportion of Group − Proportion of Other ([1]; quadrant Q1): 0.08; Proportion of Group − Proportion of Other ([1]; quadrant Q3): 0.05; Proportion of Group − Proportion of Other ([1]; quadrant Q4): −0.13
5 | C[C@H]1C[C@@H]2[C@H]([C@@H](O)C[C@@]3(C)[C@H]2CC[C@]3(O)C(=O)CO)[C@@]2(C)C=CC(=O)C=C12 [methylprednisolone] | – | – | – | – | – | – | – | – | survival rate at 60 days post-diagnosis ([2]; human, in vivo): 77%
6 | C[C@]12C=CC(=O)C=C1CC[C@@H]1[C@@H]2C(=O)C[C@@]2(C)[C@H]1CC[C@]2(O)C(=O)CO [prednisone] | – | – | – | – | – | – | – | 92% | –
7 | tocilizumab | 0 | 0 | (0) | 80% | 4 | 1 | – | – | proportion of patients in quadrant Q1 [1, 3]: (0); proportion of patients in quadrant Q3 [1, 4]: (0.8); proportion of patients in quadrant Q4 [1, 5]: (0.2); survival 60 days post diagnosis (in words) ([2]; hospitalized COVID-19 patients): all 11 hospitalized patients receiving tocilizumab survived
